pEC50, pIC50: −log10 of the molar value.

One assay has as its target human DGKα (Homo sapiens (Human), UniProt P23743). In words: DGKα Biochemical Activity Assay (ADP-Glo). Conditions: recombinant DGKα 1 nM, 100 μM ATP, 18:1 DAG/POPS/octylglucoside micelles, 1 hour at 25° C.; geometric mean; read-out: HTBS DGKa 1X ATP KM IC50. The procedure, abridged: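 Recombinant DGKα (1 nM final) was preincubated with compound for 15 min, then reacted for 1 h at 25 °C with 100 μM ATP and octylglucoside micelles of 0.85 mM 18:1 DAG and 6.75 mM POPS in pH 7.2 MOPS with 5 mM MgCl2. ADP formed was read by ADP-Glo luminescence. IC50 came from four-parameter fits normalized to DMSO and 50 μM CU3, and values were geometric means.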

Assay [1] has as its system Jurkat NFκB-luciferase cells. In words: Jurkat NFκB-Luciferase Assay. Conditions: Homo sapiens; Jurkat NFκB-luciferase cells activated with anti-CD3 antibody (OKT3), 2.5 hrs at 37° C.; geometric mean; read-out: DGK NFKb Luciferase EC50. It is filed as cell-based. The procedure, abridged: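 Jurkat NFκB-luciferase reporter cells stimulated on plate-bound anti-CD3 (5 ug/ml coating) with compound, 2.5 hrs at 37° C then 30 min at 25° C; luminescence read with One-Glo Ex. Normalized to DMSO (basal) and 1 micromolar compound (maximum) controls; EC50 from four-parameter fit, geometric mean across experiments.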

Sequence of human DGKα (P23743 whole entry): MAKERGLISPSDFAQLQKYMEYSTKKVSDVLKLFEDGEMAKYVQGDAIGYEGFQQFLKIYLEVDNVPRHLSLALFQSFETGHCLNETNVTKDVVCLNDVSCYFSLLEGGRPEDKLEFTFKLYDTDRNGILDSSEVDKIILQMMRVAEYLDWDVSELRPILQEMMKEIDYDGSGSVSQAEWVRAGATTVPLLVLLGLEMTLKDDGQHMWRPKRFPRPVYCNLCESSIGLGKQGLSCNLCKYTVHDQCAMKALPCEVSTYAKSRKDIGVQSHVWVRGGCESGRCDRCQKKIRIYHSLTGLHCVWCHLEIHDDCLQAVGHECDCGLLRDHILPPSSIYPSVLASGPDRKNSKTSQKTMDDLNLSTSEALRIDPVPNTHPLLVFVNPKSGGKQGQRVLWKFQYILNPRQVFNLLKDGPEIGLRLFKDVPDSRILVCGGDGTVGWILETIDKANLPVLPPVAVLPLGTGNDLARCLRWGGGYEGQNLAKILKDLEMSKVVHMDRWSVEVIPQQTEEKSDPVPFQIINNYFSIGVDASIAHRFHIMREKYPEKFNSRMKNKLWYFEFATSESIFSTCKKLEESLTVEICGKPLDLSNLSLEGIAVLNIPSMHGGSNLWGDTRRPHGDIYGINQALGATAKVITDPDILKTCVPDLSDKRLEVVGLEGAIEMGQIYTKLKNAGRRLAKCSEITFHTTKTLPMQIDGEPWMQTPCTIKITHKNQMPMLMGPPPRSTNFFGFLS

On to `Cc1nnc2nc(N(CC(F)F)c3ccnc(C#CC4(C(F)(F)F)CC4)c3)c3c(F)cncc3n12` [Example 53, N-(2,2-difluoroethyl)-6-fluoro-1-methyl-N-(2-((1-(trifluoromethyl)cyclopropyl)ethynyl)pyridin-4-yl)pyrido[4,3-e][1,2,4]triazolo[4,3-a]pyrimidin-5-amine], for which, at human DGKα, the pIC50 was 7.80. Besides, the pEC50 in assay [1] was 7.92.
On the same counts, the results for `CC(C)(O)C#Cc1cc(N(CC(F)F)c2nc3nncn3c3cncc(F)c23)ccn1` [Example 54, 4-(4-((2,2-difluoroethyl)(6-fluoropyrido[4,3-e][1,2,4]triazolo[4,3-a]pyrimidin-5-yl)amino)pyridin-2-yl)-2-methylbut-3-yn-2-ol] are 6.74 and 6.00.
On the same counts, the results for `Fc1cncc2c1c(N(CC(F)F)c1ccnc(C#CC3(C(F)(F)F)CC3)c1)nc1nncn12` [Example 55, N-(2,2-difluoroethyl)-6-fluoro-N-(2-((1-(trifluoromethyl)cyclopropyl)ethynyl)pyridin-4-yl)pyrido[4,3-e][1,2,4]triazolo[4,3-a]pyrimidin-5-amine] are 7.63 and 7.55.
Take `Cc1nnc2nc(N3CCOCc4c(C#CC5CN(C)CCO5)cccc43)c3c(F)cncc3n12` (stereo not drawn) [Example 56, 1-(10-fluoro-3-methyl-2,4,5,7,12-pentazatricyclo[7.4.0.02,6]trideca-1(13),3,5,7,9,11-hexaen-8-yl)-6-[2-(4-methylmorpholin-2-yl)ethynyl]-3,5-dihydro-2H-4,1-benzoxazepine]: the pIC50 at human DGKα was 7.73. The pEC50 in assay [1] is 6.96.
As for `CN(c1cncc(-c2ccc(C3CC3)cc2)n1)c1nc2nncn2c2cnccc12` [Example 57, N-[6-(4-cyclopropylphenyl)pyrazin-2-yl]-N-methyl-2,4,5,7,12-pentazatricyclo[7.4.0.02,6]trideca-1(13),3,5,7,9,11-hexaen-8-amine], the negative-log IC50 (pIC50) at human DGKα was 6.89. The pEC50 in assay [1] is 8.00.
On the same counts, the results for `CCN(c1cccc(-c2ccc(C3CC3)nc2)c1)c1nc2nncn2c2cnccc12` [Example 58, N-[3-(6-cyclopropyl-3-pyridyl)phenyl]-N-ethyl-2,4,5,7,12-pentazatricyclo[7.4.0.02,6]trideca-1(13),3,5,7,9,11-hexaen-8-amine] are 6.66 and 7.54.
On the same counts, the results for `CN(c1cccc(-c2ccc(N3CCCS3(=O)=O)cc2)c1)c1nc2nncn2c2cnccc12` [Example 59, N-[3-[4-(1,1-dioxo-1,2-thiazolidin-2-yl)phenyl]phenyl]-N-methyl-2,4,5,7,12-pentazatricyclo[7.4.0.02,6]trideca-1(13),3,5,7,9,11-hexaen-8-amine] are 7.34 and 6.92.
Regarding `CN(c1cccc(-c2ccc(C3CC3)cc2)c1)c1nc2nncn2c2cnccc12` [Example 61, N-[3-(4-cyclopropylphenyl)phenyl]-N-methyl-2,4,5,7,12-pentazatricyclo[7.4.0.02,6]trideca-1(13),3,5,7,9,11-hexaen-8-amine], the pIC50 at human DGKα is 7.64. Also, the negative logarithm of the EC50 (pEC50) in assay [1] is 9.27.
On the same counts, the results for `CN(c1cccc(-c2ccc(C3CC3)nc2)c1)c1nc2nncn2c2cnccc12` [Example 62, N-[3-(6-cyclopropyl-3-pyridyl)phenyl]-N-methyl-2,4,5,7,12-pentazatricyclo[7.4.0.02,6]trideca-1(13),3,5,7,9,11-hexaen-8-amine] are 6.80 and 7.56.
The matching figures for `Cc1nnc2nc(N3CCCCc4c(C#CC(C)(C)C(C)(F)F)cccc43)c3c(F)cncc3n12` [Example 63, 5-(6-(4,4-difluoro-3,3-dimethylpent-1-yn-1-yl)-2,3,4,5-tetrahydro-1H-benzo[b]azepin-1-yl)-6-fluoro-1-methylpyrido[4,3-e][1,2,4]triazolo[4,3-a]pyrimidine]: 7.94 and 8.96.
Consider `Cc1nnc2nc(N3CCCCc4c(C#CC5(C(C)(F)F)CC5)cccc43)c3c(F)cncc3n12` [Example 65, 5-(6-((1-(1,1-difluoroethyl)cyclopropyl)ethynyl)-2,3,4,5-tetrahydro-1H-benzo[b]azepin-1-yl)-6-fluoro-1-methylpyrido[4,3-e][1,2,4]triazolo[4,3-a]pyrimidine], for which, at human DGKα, the pIC50 was 7.64. Also, the pEC50 in assay [1] was 9.47.
On the same counts, the results for `Cc1nnc2nc(N3CCCCc4c(C#CC(C)(C)O)cccc43)c3c(F)cncc3n12` [Example 66, 4-(1-(6-fluoro-1-methylpyrido[4,3-e][1,2,4]triazolo[4,3-a]pyrimidin-5-yl)-2,3,4,5-tetrahydro-1H-benzo[b]azepin-6-yl)-2-methylbut-3-yn-2-ol] are 8.21 and 7.80.
On the same counts, the results for `Cc1nnc2nc(N3CCCCc4c(C#CC5(C(F)F)CC5)cccc43)c3c(F)cncc3n12` [Example 67, 5-(6-((1-(difluoromethyl)cyclopropyl)ethynyl)-2,3,4,5-tetrahydro-1H-benzo[b]azepin-1-yl)-6-fluoro-1-methylpyrido[4,3-e][1,2,4]triazolo[4,3-a]pyrimidine] are 8.40 and 8.91.
On the same counts, the results for `Cc1nnc2nc(N3CCCCc4c(C#CC5CC5)cccc43)c3c(F)cncc3n12` [Example 68, 5-(6-(cyclopropylethynyl)-2,3,4,5-tetrahydro-1H-benzo[b]azepin-1-yl)-6-fluoro-1-methylpyrido[4,3-e][1,2,4]triazolo[4,3-a]pyrimidine] are 8.12 and 8.92.
With `Cc1nnc2nc(N3CCCCc4c(Br)cccc43)c3c(F)cncc3n12` [Example 69, 5-(6-bromo-2,3,4,5-tetrahydro-1H-benzo[b]azepin-1-yl)-6-fluoro-1-methylpyrido[4,3-e][1,2,4]triazolo[4,3-a]pyrimidine], at human DGKα, the pIC50 is 6.66. For the same compound, the pEC50 in assay [1] is 7.86.
The matching figures for `Cc1nnc2nc(N3CCCOc4c(C#CC(C)(C)C(F)(F)F)cccc43)c3c(F)cncc3n12` [Example 70, 5-(6-fluoro-1-methylpyrido[4,3-e][1,2,4]triazolo[4,3-a]pyrimidin-5-yl)-9-(4,4,4-trifluoro-3,3-dimethylbut-1-yn-1-yl)-2,3,4,5-tetrahydrobenzo[b][1,4]oxazepine]: 8.19 and 8.58.
On the same counts, the results for `Cc1nnc2nc(N3CCCOc4c(C#CC(C)(C)O)cccc43)c3c(F)cncc3n12` [Example 71, 4-(5-(6-fluoro-1-methylpyrido[4,3-e][1,2,4]triazolo[4,3-a]pyrimidin-5-yl)-2,3,4,5-tetrahydrobenzo[b][1,4]oxazepin-9-yl)-2-methylbut-3-yn-2-ol] are 7.73 and 6.52.
On the same counts, the results for `Cc1nnc2nc(N3CCCOc4c(C#CC5(C(F)(F)F)CC5)cccc43)c3c(F)cncc3n12` [Example 72, 5-(6-fluoro-1-methylpyrido[4,3-e][1,2,4]triazolo[4,3-a]pyrimidin-5-yl)-9-((1-(trifluoromethyl)cyclopropyl)ethynyl)-2,3,4,5-tetrahydrobenzo[b][1,4]oxazepine] are 8.13 and 8.52.
Consider `Cc1nnc2nc(N3CCCOc4c(C#CC5(C)CC5)cccc43)c3c(F)cncc3n12` [Example 73, 5-(6-fluoro-1-methylpyrido[4,3-e][1,2,4]triazolo[4,3-a]pyrimidin-5-yl)-9-((1-methylcyclopropyl)ethynyl)-2,3,4,5-tetrahydrobenzo[b][1,4]oxazepine], for which, on human DGKα, the pIC50 is 8.38. The pEC50 in assay [1] was 8.46.
For `Cc1nnc2nc(N3CCCOc4c(C#CC5CC5)cccc43)c3c(F)cncc3n12` [Example 74, 9-(cyclopropylethynyl)-5-(6-fluoro-1-methylpyrido[4,3-e][1,2,4]triazolo[4,3-a]pyrimidin-5-yl)-2,3,4,5-tetrahydrobenzo[b][1,4]oxazepine], the pIC50 on human DGKα was 8.64. Moreover, the pEC50 in assay [1] was 8.49.
The matching figures for `Cc1nnc2nc(N3CCCOc4c(Br)cccc43)c3c(F)cncc3n12` [Example 75, 9-bromo-5-(6-fluoro-1-methylpyrido[4,3-e][1,2,4]triazolo[4,3-a]pyrimidin-5-yl)-2,3,4,5-tetrahydrobenzo[b][1,4]oxazepine]: 6.45 and 7.32.
Consider `Cc1nnc2nc(N3CCOCc4c(C#CC(C)(C)C(F)(F)F)cccc43)c3c(F)cncc3n12` [Example 76, 1-(6-fluoro-1-methylpyrido[4,3-e][1,2,4]triazolo[4,3-a]pyrimidin-5-yl)-6-(4,4,4-trifluoro-3,3-dimethylbut-1-yn-1-yl)-1,2,3,5-tetrahydrobenzo[e][1,4]oxazepine], for which, at human DGKα, the pIC50 is 8.22. Besides, the pEC50 in assay [1] is 8.85.
On the same counts, the results for `Cc1nnc2nc(N3CCOCc4c(C#CC(C)(C)O)cccc43)c3c(F)cncc3n12` [Example 77, 4-(1-(6-fluoro-1-methylpyrido[4,3-e][1,2,4]triazolo[4,3-a]pyrimidin-5-yl)-1,2,3,5-tetrahydrobenzo[e][1,4]oxazepin-6-yl)-2-methylbut-3-yn-2-ol] are 7.90 and 6.88.
Take `Cc1nnc2nc(N3CCOCc4c(C#CC5(C(F)(F)F)CC5)cccc43)c3c(F)cncc3n12` [Example 78, 1-(6-fluoro-1-methylpyrido[4,3-e][1,2,4]triazolo[4,3-a]pyrimidin-5-yl)-6-((1-(trifluoromethyl)cyclopropyl)ethynyl)-1,2,3,5-tetrahydrobenzo[e][1,4]oxazepine]: the pIC50 on human DGKα is 8.36. Further, the pEC50 in assay [1] was 8.71.

For the origin of these results see patent US11926628B2 (Gilead Sciences, Inc., priority 2021, dated 2024).
